Here are results for two compounds from publication PMC4635063 (Cephalalgia : an international journal of headache, 2015).

The target of assay [1] is T1, TRPM8 (transient receptor potential channel M8) (Rattus norvegicus, UniProt Q8R455). In words: agonist. The assay is classed as cell-based.
Assay [2] has as its target T1, TRPM8 (transient receptor potential channel M8). In words: aequorin luminescence calcium assay in CHO cells, inhibition of icilin. The assay is classed as cell-based.

T1 sequence (Q8R455 whole entry): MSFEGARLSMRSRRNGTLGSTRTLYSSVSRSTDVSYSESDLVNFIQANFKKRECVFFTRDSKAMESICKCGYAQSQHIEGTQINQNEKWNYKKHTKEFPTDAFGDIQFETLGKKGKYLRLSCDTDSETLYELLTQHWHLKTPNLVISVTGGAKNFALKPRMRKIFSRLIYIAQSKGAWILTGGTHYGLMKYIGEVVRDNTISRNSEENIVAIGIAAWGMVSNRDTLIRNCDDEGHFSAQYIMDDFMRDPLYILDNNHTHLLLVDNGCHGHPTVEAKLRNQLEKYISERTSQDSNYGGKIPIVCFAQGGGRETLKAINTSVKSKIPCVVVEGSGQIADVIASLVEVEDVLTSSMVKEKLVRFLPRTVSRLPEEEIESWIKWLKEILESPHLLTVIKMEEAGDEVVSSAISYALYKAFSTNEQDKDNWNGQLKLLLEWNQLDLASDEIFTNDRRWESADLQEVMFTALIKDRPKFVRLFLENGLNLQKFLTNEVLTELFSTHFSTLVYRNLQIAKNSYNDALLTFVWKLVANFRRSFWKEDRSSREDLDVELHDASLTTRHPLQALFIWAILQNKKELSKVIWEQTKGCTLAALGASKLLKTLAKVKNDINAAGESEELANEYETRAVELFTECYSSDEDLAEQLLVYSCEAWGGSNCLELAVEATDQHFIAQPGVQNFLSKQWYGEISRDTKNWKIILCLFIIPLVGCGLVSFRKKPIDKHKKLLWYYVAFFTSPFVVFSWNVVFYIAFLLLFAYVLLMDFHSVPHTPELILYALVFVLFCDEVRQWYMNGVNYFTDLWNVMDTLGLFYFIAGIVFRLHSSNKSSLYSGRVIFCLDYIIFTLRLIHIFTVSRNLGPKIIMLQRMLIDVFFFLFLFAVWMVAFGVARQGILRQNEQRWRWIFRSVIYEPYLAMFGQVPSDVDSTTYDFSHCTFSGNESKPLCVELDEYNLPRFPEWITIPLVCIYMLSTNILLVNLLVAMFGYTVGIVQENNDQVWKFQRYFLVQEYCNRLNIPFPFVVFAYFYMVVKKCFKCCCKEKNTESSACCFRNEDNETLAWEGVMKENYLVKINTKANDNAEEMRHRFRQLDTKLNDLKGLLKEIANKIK

As to `O=C1NC(c2cccc([N+](=O)[O-])c2)=CCN1c1ccccc1O` [icilin], in assay [1], the “agonist (1 uM) in aequorin luminescence calcium assay in CHO cells” value was “inhibition of TRPM8 activation by icilin and cold in cultured CHO cells stably transfected with rat TRPM8 channel”.
In the case of AMG1161, in assay [2], the concentration for half-maximal inhibition (IC50) turned out to be 0.023 ± 0.0009 µM.

In general, IC50 refers to the concentration needed to halve the response being measured.
